Results published in patent publication US12589130B2, “Aloe extracts for microbial neutralisation” (2QR RESEARCH B.V., priority 2020, dated 2026).

System: Staphylococcus aureus
Test: Aggregation of fluorescently labelled microorganisms, MAC (Example 1)
Format: cell-based
Experimental: Microbial cells were fluorescently labelled with fluorescein isothiocyanate (FITC, Sigma-Aldrich, St Louis, MO, USA) or SYTO™ 24 green fluorescent nucleic acid stain (Thermo Fisher, Rockford, IL, USA). FITC labelling was performed by incubation in a 0.2 M NaHCO3 pH 9.5 buffer with a final concentration of 0.2 mg/ml FITC (from a 2 mg/ml FITC stock in DMSO) and shaking for 1 hour at 37° C. and subsequently extensively washing with phosphate buffered saline (PBS). SYTO-24 labelling was performed in PBS using a final 1 μM concentration of the dye for at least 30 minutes and subsequently washing with PBS. […] Aggregation was examined immediately or at a more convenient moment using a fluorescence microscope. […]
The Minimal Aggregation Concentration (MAC), the lowest concentration of polysaccharides still convincingly showing microbial aggregation, was determined by 2-fold serial dilutions and expressed in mg or microgram polysaccharides/ml. […] Quantification of samples was based on dry weight determination unless otherwise indicated.
10× concentrated Aloe vera leaf juice, a 10× decolorized liquid made from purified inner leaf fillet that contained not less than 10% polysaccharides, was purchased at a commercial supplier (ACTIValoe® Aloe vera Gel 10X-D, AloeCorp, Harlingen, TX, USA). […] The Minimal Aggregation Concentration (MAC) of the >12 kDa fraction was determined and compared to that of D-mannose.

With O=C[C@@H](O)[C@@H](O)[C@H](O)[C@H](O)CO [D-mannose] the MAC (Minimal Aggregation Concentration towards Staphylococcus aureus, mg polysaccharides/ml) was >16 mg/mL and the aggregating activity (highest concentration tested (16 mg/ml)) was “did not have aggregating activity”.
